PubChem BioAssay (NCI)
In brackets after ≈: the same amount, converted by molar mass.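 Dose response: 5 concentrations. Exposure: 48 h. Format: 96-well plates. Endpoint: linear interpolation; highest concentration if not reached. Here, GI50 denotes the concentration required for 50% inhibition of growth. TGI marks complete inhibition of growth.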

How the values were obtained:
Experiment in all cases: NCI tumour cell line growth inhibition, 48 h
DLD-1 colon = test system: DLD-1 colon
DMS 114 small cell lung = test system: DMS 114 small cell lung
M19-MEL melanoma = test system: M19-MEL melanoma
RXF-631 renal = test system: RXF-631 renal
XF 498 CNS = test system: XF 498 CNS
MCF7 breast = test system: MCF7 breast
MDA-MB-435 = test system: MDA-MB-435
MDA-N = test system: MDA-N

Compound	TGI (DLD-1 colon) [µM]	TGI (DMS 114 small cell lung) [µM]	TGI (M19-MEL melanoma) [µM]	TGI (RXF-631 renal) [µM]	TGI (XF 498 CNS) [µM]	TGI (MCF7 breast)	TGI (MDA-MB-435)	other results
Cc1c(NC(=O)C(=O)N=NC(=O)c2ccncc2)c(O)c2ccccc2c1O	31.6	15.3	3.23	> 100	–	–	–	–
O=C1C2=C(c3ccccc31)C(c1cccc(Cl)c1)NC(=S)N2 (stereo not given)	> 100	> 100	> 100	–	> 100	–	–	–
N[C@H]1C2C3CC4C5CC(C42)C1(c1ccccc1)C53 (stereo not given in full)	> 100	> 100	> 100	–	> 100	–	–	–
O=[N+]([O-])c1ccc(-c2ccc(/C=N/n3c(-c4ccc(Cl)cc4)n[nH]c3=S)o2)cc1	> 100	> 100	> 55.8	> 55.5	46.6	–	–	–
ClC(=Nc1cccc2ccccc12)N(c1ccccc1)c1ccccc1	–	–	–	–	–	> 100 µM	> 100 µM	TGI (MDA-N): > 100 µM
Cn1nc(-c2ccccc2NC(=O)C(F)(F)F)c(=O)n(C)c1=S	> 100	29.5	48.7	–	36.9	–	–	–
CCCCCCC(=O)C/C(CCC(=O)N(Cc1ccccc1)Cc1ccccc1)=N\Nc1ccc([N+](=O)[O-])cc1[N+](=O)[O-]	> 100	40.6	> 100	–	–	–	–	–
CC1=COC(=O)c2ccccc2N1	> 100	> 100	> 100	–	–	–	–	–
CC1(C)CC(=O)C2=C(C1)NC(SSC1=C(C#N)C(c3ccccc3)C3=C(CC(C)(C)CC3=O)N1)=C(C#N)C2c1ccccc1 (stereo not given)	–	–	–	–	–	85.6 mg/L	49.9 mg/L	GI50 (MCF7 breast): 35.6 mg/L; GI50 (MDA-MB-435): 25.7 mg/L; GI50 (MDA-N): 21 mg/L (≈ 33.9 µM); TGI (MDA-N): 40.4 mg/L
CCOP(=O)(OCC)C1C(=O)O[C@H]2CCCC[C@@H]12 (stereo not given in full)	> 100	> 100	> 100	–	> 100	–	–	–
Cc1ccc2c(c1)NC(c1ccc(C(=O)O)cc1)c1cccn1-2 (stereo not given)	–	–	–	–	–	> 100 µM	> 100 µM	TGI (MDA-N): > 100 µM
C/C(=N\N(C)C)c1sc(-n2nc(-c3ccccc3)cc2-c2ccccc2)nc1C	> 100	> 100	> 100	> 100	> 100	–	–	–
CC(=O)[CH-]C(=O)c1ccccc1.CC(=O)[CH-]C(=O)c1ccccc1.CCN(CC)CC[O-].CCN(CC)CC[O-].Cl.[Ti+4]	–	–	52.2	–	–	–	–	GI50 (M19-MEL melanoma): 17.6 µM
O=C1CC(=O)N(C2CCCCC2)C(=O)N1c1ccccc1S(=O)(=O)Oc1ccccc1	–	–	–	–	–	> 100 µM	> 100 µM	TGI (MDA-N): > 100 µM
CCOC(=O)/N=c1\ss/c(=N\C(=S)N(C)C)n1-c1ccccc1	> 100	–	–	–	> 100	–	–	GI50 (DLD-1 colon): > 100 µM; GI50 (DMS 114 small cell lung): > 100 µM; GI50 (M19-MEL melanoma): > 100 µM
CC(=O)Oc1c(C)n(CCCl)ccc1=O	> 100	> 100	> 100	> 100	> 100	–	–	–
CCCCOC(=O)C(=O)C(CC(C(=O)Cc1ccccc1)c1ccccc1)C(=O)C=C(C)C (stereo not given)	–	–	–	–	–	> 100 µM	> 100 µM	TGI (MDA-N): > 100 µM
COc1cc(O)c(C(=O)/C=C/c2ccccc2)c(OC)c1	–	–	–	–	–	24.2 µM	25.5 µM	TGI (MDA-N): 14.7 µM
C=C(c1ccccc1N)[C@@]1(O)C[C@H](/C(=C\C)CO)C[C@@H]1NCc1ccccc1	–	33.9	62.1	–	–	–	–	–
O=C1c2ccccc2-c2c1c1ccccc1c(=O)n2CCO	–	–	–	–	–	> 100 µM	> 100 µM	TGI (MDA-N): > 100 µM
COC(=O)Nc1nc2ccc(C(=O)c3ccc[nH]3)cc2[nH]1	–	–	–	–	–	> 100 µM	0.359 µM	TGI (MDA-N): 0.419 µM
Cc1ccc(S(=O)(=O)N/N=C/C(Br)=C(/Br)C(=O)O)cc1	–	–	–	–	–	51 µM	18.3 µM	TGI (MDA-N): 18.8 µM
CC(Cl)(/C=C/Cl)C(Cl)/C=C/C(Cl)(CCl)CBr (stereo not given)	12.5	5.32	13.5	4.05	–	–	–	–
O/N=C1/C(=C/c2ccc(F)cc2)CCCC1C(NO)c1ccc(F)cc1 (stereo not given)	> 100	> 100	> 100	> 100	> 100	–	–	–

Compound	TGI (DLD-1 colon) [µM]	TGI (DMS 114 small cell lung) [µM]	TGI (M19-MEL melanoma) [µM]	TGI (RXF-631 renal) [µM]	TGI (XF 498 CNS) [µM]	TGI (MCF7 breast)	TGI (MDA-MB-435)	other results
COC1C=C(Nc2cccc(Cl)c2)C(=O)C1 (stereo not given)	> 100	> 100	> 100	–	77	–	–	–
CCOC(=O)/C(C1=N[C@H](C(=O)OCC)CS1)=C(\C)O	> 100	–	> 100	> 100	> 100	–	–	–
CC(C)=CC(=O)CC(=O)C(=O)Nc1ccc(C)c(C)c1	> 100	–	> 100	> 100	> 100	–	–	–
O=C1C2=C(c3ccccc31)C(c1ccc(Cl)cc1)N1C(=O)CCSC1=N2 (stereo not given)	> 100	> 100	> 100	> 100	> 100	–	–	–
S=c1[nH]nc(COc2ccc(Cl)cc2)o1	> 100	> 100	> 100	> 100	–	–	–	–
COc1cc(C(=O)O)c([N+](=O)[O-])c(OC)c1OC	–	–	–	–	–	> 100 µM	> 100 µM	TGI (MDA-N): > 100 µM
COc1ccc(/C=C2/CCCC/C2=N/O)cc1	> 100	> 100	> 100	> 100	–	–	–	–
O=C(Cc1ccccc1)NN1C(=O)C(Cl)C1c1cccc(O)c1 (stereo not given)	31.1	29.4	35.8	–	35.4	–	–	–
NNC(=O)/C(=C/c1cccc([N+](=O)[O-])c1)NC(=O)c1ccccc1	> 100	> 100	> 100	> 100	> 100	–	–	–
COc1cc(C2C(Cl)C(=O)N2n2cnc3ccccc3c2=O)cc(OC)c1OC (stereo not given)	> 100	> 100	> 100	–	> 100	–	–	–
NC(N)=NS(=O)(=O)c1ccc(NC(=O)c2cccc3c(Nc4ccc(S(=O)(=O)N=C(N)N)cc4)c4ccc(Cl)cc4nc23)cc1	> 100	> 100	–	–	> 100	–	–	–
CCOC(=O)Cc1c(Cc2[nH]c(C(=O)OCc3ccccc3)c(CC(=O)OCC)c2CC(=O)OCC)[nH]c(C(=O)OCc2ccccc2)c1CC(=O)OCC	–	> 100	> 100	–	–	–	–	–
CCCCN(CCCC)C(=O)C(=O)CC(=O)c1ccc(Br)cc1	> 100	> 100	> 100	–	> 100	–	–	–
Cc1cc(Br)cc(C)c1NC(=O)C(=O)CC(=O)c1sc(-n2nc(-c3ccccc3)cc2-c2ccccc2)nc1C	> 100	> 100	> 100	> 100	–	–	–	–
O=C1C2CC(Cl)C(SSC3CC4C(=O)N(SC(Cl)(Cl)C(Cl)Cl)C(=O)C4CC3Cl)CC2C(=O)N1SC(Cl)(Cl)C(Cl)Cl (stereo not given)	–	–	–	–	–	7.67 µM	6.23 µM	TGI (MDA-N): 6.71 µM
NC(N)=NC(CC(=O)O)c1ccccc1 (stereo not given)	–	–	–	–	–	> 100 µM	> 100 µM	TGI (MDA-N): > 100 µM
CC1=C(C(=O)Nc2ccccc2)C(c2ccc3c(c2)OCO3)C(C(=O)Nc2ccccc2)=C(C)N1	> 100	> 100	> 100	> 100	85.4	–	–	–
Cn1ncc2cc3c(Nc4ccc(Cl)cc4)cccc3nc21	> 100	28.9	43.9	74.7	20.5	–	–	–
O=C1c2cc3c(cc2-c2c1c1cc(Cl)c(Cl)cc1c(=O)n2CCCn1ccnc1)OCO3	–	–	–	–	–	12.3 µM	> 100 µM	GI50 (MCF7 breast): < 0.01 µM; GI50 (MDA-MB-435): 0.0162 µM
COc1c(OC(C)=O)ccc(/C=C2\N=C(C)OC2=O)c1[N+](=O)[O-]	> 100	–	> 100	> 100	–	–	–	–
O=C(c1cccs1)c1c(C(F)(F)F)n([O-])c2ccc(C(F)(F)F)cc2[n+]1=O	–	–	–	–	–	0.787 µM	1.19 µM	GI50 (MCF7 breast): 0.294 µM; GI50 (MDA-MB-435): 0.564 µM
C/C(=N\NC(=S)Nc1ccc(C(=O)O)cc1)c1ccccn1	> 100	> 100	49.7	–	63.7	–	–	–
CC(Cc1ccc(Cl)cc1Cl)NO (stereo not given)	–	–	–	–	–	> 100 µM	> 100 µM	TGI (MDA-N): > 100 µM
Nc1nc(N)[n+]([O-])c(N)c1NCO	–	–	–	–	–	> 100 µM	> 100 µM	TGI (MDA-N): > 100 µM
